Experimental data taken from the CheMixHub ionic liquid set.

Experiment: xn = mol fraction of the nth substance listed

CC[n+]1ccn(CCOC)c1.O=S(=O)([N-]S(=O)(=O)C(F)(F)F)C(F)(F)F + CCO
viscosity [mPa·s], 100 kPa
Conditions	x1 = 0.1	x1 = 0.1947	x1 = 0.2995	x1 = 0.4	x1 = 0.5002	x1 = 0.6001	x1 = 0.6999	x1 = 0.8	x1 = 0.9	x1 = 1
288.15 K	2.988	5.32	8.21	12.02	17.17	22.86	29.81	37.73	47.39	54.62
293.15 K	2.648	4.62	7.03	10.16	14.5	19.09	24.64	30.74	38.01	43.63
298.15 K	2.361	4.046	6.09	8.7	12.31	16.25	20.6	25.4	31.15	35.49
303.15 K	2.117	3.591	5.32	7.53	10.53	13.87	17.61	21.35	25.87	29.33
308.15 K	1.907	3.195	4.688	6.58	9.1	11.89	15.14	18.22	21.81	24.58
313.15 K	1.725	2.861	4.162	5.799	7.91	10.27	13.06	15.8	18.68	20.86
318.15 K	1.568	2.576	3.743	5.15	6.95	8.97	11.36	13.73	16.27	18.03

NC(N)=NCCC[C@H](N)C(=O)O + CCCC[N+](C)(CCCC)CCCC.[Cl-] + O
viscosity [mPa·s], 101.3 kPa
Conditions	293.15 K	298.15 K	303.15 K	308.15 K	313.15 K
x1 = 0.0003636, x2 = 0.00072	1.06	0.94	0.85	0.76	0.69
x1 = 0.0003667, x2 = 0.001439	1.1	0.98	0.88	0.79	0.72
x1 = 0.0007271, x2 = 0.0007198	1.07	0.95	0.86	0.78	0.7
x1 = 0.0007335, x2 = 0.001438	1.11	0.99	0.89	0.8	0.73
x1 = 0.001088, x2 = 0.0007195	1.08	0.97	0.87	0.79	0.71
x1 = 0.001096, x2 = 0.001438	1.12	1	0.9	0.82	0.75
x1 = 0.001452, x2 = 0.0007192	1.1	0.98	0.88	0.8	0.72
x1 = 0.001464, x2 = 0.001437	1.13	1.01	0.91	0.83	0.76
x1 = 0.001809, x2 = 0.001437	1.15	1.02	0.92	0.84	0.77
x1 = 0.001816, x2 = 0.000719	1.11	0.99	0.89	0.81	0.73
x1 = 0.002177, x2 = 0.0007187	1.12	1	0.9	0.82	0.75
x1 = 0.002195, x2 = 0.001436	1.16	1.04	0.94	0.85	0.78
x1 = 0.002535, x2 = 0.0007185	1.13	1.02	0.92	0.84	0.76
x1 = 0.00256, x2 = 0.001436	1.17	1.05	0.95	0.87	0.79

CCCC[n+]1ccccc1.F[B-](F)(F)F + O
Conditions	electrical conductivity [S/m]	viscosity [mPa·s]
283.15 K, 101.3 kPa, x2 = 0.263	–	84
283.15 K, 101.3 kPa, x2 = 0.637	–	15.85
283.15 K, 101.3 kPa, x2 = 0.724	–	10.78
288.15 K, 101.3 kPa, x2 = 0.11	–	153.8
288.15 K, 101.3 kPa, x2 = 0.391	–	35.82
288.15 K, 101.3 kPa, x2 = 0.637	–	13.01
298.15 K, 101 kPa, x1 = 0.000191	0.096	–
298.15 K, 101 kPa, x1 = 0.0004053	0.191	–
298.15 K, 101 kPa, x1 = 0.0005259	0.247	–
298.15 K, 101 kPa, x1 = 0.0007203	0.33	–
298.15 K, 101 kPa, x1 = 0.0008354	0.365	–
298.15 K, 101 kPa, x1 = 0.0009829	0.44	–
298.15 K, 101 kPa, x1 = 0.001125	0.486	–
298.15 K, 101 kPa, x1 = 0.001254	0.542	–
298.15 K, 101 kPa, x1 = 0.001434	0.6	–
298.15 K, 101 kPa, x1 = 0.001585	0.659	–
298.15 K, 101 kPa, x1 = 0.001811	0.743	–
298.15 K, 101 kPa, x1 = 0.001984	0.819	–
298.15 K, 101 kPa, x1 = 0.002073	0.846	–
298.15 K, 101 kPa, x1 = 0.002208	0.889	–
298.15 K, 101 kPa, x1 = 0.002434	0.962	–
298.15 K, 101 kPa, x1 = 0.002597	1.02	–
298.15 K, 101 kPa, x1 = 0.002828	1.09	–
298.15 K, 101 kPa, x1 = 0.002875	1.11	–
298.15 K, 101 kPa, x1 = 0.003074	1.17	–
298.15 K, 101 kPa, x1 = 0.003174	1.2	–
298.15 K, 101.3 kPa, x2 = 0.724	–	6.55
303.15 K, 101.3 kPa, x2 = 0.11	–	67.1
303.15 K, 101.3 kPa, x2 = 0.549	–	11.1
313.15 K, 101.3 kPa, x2 = 0.549	–	8.32
313.15 K, 101.3 kPa, x2 = 0.724	–	4.34
328.15 K, 101.3 kPa, x2 = 0.11	–	24.88
328.15 K, 101.3 kPa, x2 = 0.724	–	3.11
333.15 K, 101.3 kPa, x2 = 0.414	–	7.99
338.15 K, 101.3 kPa, x2 = 0.637	–	3.52
343.15 K, 101.3 kPa, x2 = 0.11	–	15.89
343.15 K, 101.3 kPa, x2 = 0.263	–	9.35
343.15 K, 101.3 kPa, x2 = 0.391	–	6.91
348.15 K, 101.3 kPa, x2 = 0	–	18.45

CC(=O)[O-].CCCCCCCCCCCCCC[P+](CCCCCC)(CCCCCC)CCCCCC + COCCOCCOCCOCCOC
100 kPa
Conditions	viscosity [mPa·s]
278.15 K, x2 = 0.207	651
278.15 K, x2 = 0.499	176
283.15 K, x2 = 0.207	462
288.15 K, x2 = 0.103	549
288.15 K, x2 = 0.4	145
298.15 K, x2 = 0.103	287
298.15 K, x2 = 0.4	88
313.15 K, x2 = 0.103	130

CCCCCCCCCCCCCC[P+](CCCC)(CCCC)CCCC.CCCCCCCCCCCCc1ccc(S(=O)(=O)[O-])cc1 + O
100 kPa
Conditions	viscosity [mPa·s]
323.15 K, x1 = 0.3453	116
353.15 K, x1 = 0.892	148

CCCC[P+](CC)(CC)CC.N#Cc1ccc[n-]1 + OCCN(CCO)CCO
100 kPa
Conditions	electrical conductivity [S/m]	viscosity [mPa·s]
293.15 K, x1 = 0.005	0.0013	–
293.15 K, x1 = 0.012	0.0027	–
293.15 K, x1 = 0.029	0.0046	980
293.15 K, x1 = 0.035	0.005	–
293.15 K, x1 = 0.223	–	810
293.15 K, x1 = 0.459	0.0205	–
298.15 K, x1 = 0.018	–	629
303.15 K, x1 = 0.223	–	341
303.15 K, x1 = 0.508	–	278
